Test results reported in US8323971B2, “Differentiation of pluripotent cells into primary germ layer progenitors” (Cambridge Enterprise Limited, priority 2006, dated 2012).

Test system: hESCs
Assay: Real time PCR of hESCs after addition of BMP4 in CDM (extra-embryonic differentiation)
Assay type: cell-based, human
Details: 10 ng/ml in CDM
Experimental: hESCs grown in Feeder free and serum free conditions were harvested using 5 mg/ml collagenase IV then plated into plates pre-coated with fibronectin. hESCs were grown for 48 hours in CDM supplemented with Activin (10 ng/ml, RandD systems) and FGF2 (12 ng/ml, RandD systems). To induce extra-embryonic differentiation, hESCs were grown for 5 additional days in CDM supplemented with BMP4 (10 ng/ml, RandD systems). To obtain neuroectoderm progenitors, hESCs were grown in CDM or in CDM-PVA in the presence of SB431542 (10 μM Tocris) and FGF2 (12 ng/ml, RandD systems) for 7 additional days. The resulting cells were grown in non-adherent conditions for 10 days and then plated back for 5 additional days in CDM to obtain fully differentiated neuronal cells. To obtain mesendoderm precursors, hESCs were grown for 3 additional days in CDM-PVA in the presence of SU5402 (10 μM, Calbiochem) and Activin (5 ng/ml, RandD systems). On the fifth day after passaging, the resulting cells were grown in CDM-PVA in the presence of BMP4 (10 ng/ml, RandD systems), FGF2 (20 ng/ml, RandD systems) and Activin (30 ng/ml or 100 ng/ml, RandD systems).
Total RNAs were extracted from hESCs or differentiated progenitors using the RNeasy Mini or Micro Kits (Qiagen). Each sample was treated with RNAse-Free DNAse (Qiagen) in order to avoid DNA contamination. […]

Question: For “BMP4: Bone Morphogenetic Protein 4 growth factor”, which “expression of extra-embryonic markers including GATA6 and H19” value is on record?
Answer: strongly enhanced

Question: And the “level of Oct-4 transcripts” value (after 16 hours)?
Answer: significant decrease
